Measurements as given in patent US5202315A, “Cephalosporin compounds” (Lucky, Ltd., priority 1989, dated 1993).
≈ marks a conversion by molar mass, not a printed value. Where two headings read alike, the source gives them in different places.

What was measured:
[1] = In-vivo absorbency (plasma concentrations & pharmacokinetic parameters); set-up: species or system SD rat (male); conditions: plasma, SD male rat, iv 20 mg/kg; for half-life: rat, iv, 20 mg/kg
From the text: The blood samples from the femoral vein of the rats were taken every hour after administration, and analyzed by bio-assay(agar well method).
Tested animal: SD male Rat (220~340 g)

[2] = as above; set-up: species or system SD rat (male); conditions: plasma, SD male rat, iv 20 mg/kg, read-out: Plasma Conc.
[3] = system: Proteus vulgaris ATCC 6059; test: Antibacterial activity, MIC; format: cell-based; conditions: ATCC6059, ATCC 6059, agar two-fold dilution, 37° C., 20 hours, read-out: MIC
Method in brief: (§1)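 Agar two-fold dilution method: compound serially diluted two-fold in Mueller-Hinton agar, spotted with 2 μl of a 10^7 CFU/ml inoculum of each standard strain, then incubated at 37 °C for 20 h.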

[4] = system: Morganella morganii ATCC 8076h; test: Antibacterial activity, MIC; format: cell-based; conditions: ATCC8076H, agar two-fold dilution, 37° C., 20 hours
Method in brief: as §1

[5] = system: Pseudomonas aeruginosa ATCC 10145; test: Antibacterial activity, MIC; format: cell-based; conditions: ATCC10145, ATCC 10145, agar two-fold dilution, 37° C., 20 hours, read-out: MIC
Method in brief: as §1

[6] = system: Providencia rettgeri ATCC 9250; test: Antibacterial activity, MIC; format: cell-based; conditions: ATCC9250, agar two-fold dilution, 37° C., 20 hours
Method in brief: as §1

[7] = system: Escherichia coli ATCC 10536; test: Antibacterial activity, MIC; format: cell-based; conditions: ATCC10536, agar two-fold dilution, 37° C., 20 hours
Method in brief: as §1

[8] = system: Citrobacter freundii ATCC 8090; test: Antibacterial activity, MIC; format: cell-based; conditions: ATCC8090, ATCC 8090, agar two-fold dilution, 37° C., 20 hours, read-out: MIC
Method in brief: as §1

[9] = system: Streptococcus faecalis ATCC 29212; test: Antibacterial activity, MIC; format: cell-based; conditions: Enterococcus faecalis, ATCC29212; ATCC 29212; agar two-fold dilution, 37° C., 20 hours; read-out: MIC
Method in brief: as §1

[10] = system: Shigella flexneri ATCC 11836; test: Antibacterial activity, MIC; format: cell-based; conditions: ATCC11836, agar two-fold dilution, 37° C., 20 hours
Method in brief: as §1

[11] = system: Serratia marcescens ATCC 27117; test: Antibacterial activity, MIC; format: cell-based; conditions: ATCC27117, ATCC 27117, agar two-fold dilution, 37° C., 20 hours, read-out: MIC
Method in brief: as §1

[12] = system: Proteus mirabilis ATCC 25933; test: Antibacterial activity, MIC; format: cell-based; conditions: ATCC25933, ATCC 25933, agar two-fold dilution, 37° C., 20 hours, read-out: MIC
Method in brief: as §1

[13] = system: Klebsiella pneumoniae ATCC 10031; test: Antibacterial activity, MIC; format: cell-based; conditions: ATCC10031, ATCC 10031, agar two-fold dilution, 37° C., 20 hours, read-out: MIC
Method in brief: as §1

[14] = system: Staphylococcus aureus ATCC 10537; test: Antibacterial activity, MIC; format: cell-based; conditions: ATCC10537, ATCC 10537, agar two-fold dilution, 37° C., 20 hours, read-out: MIC
Method in brief: as §1

[15] = system: Acinetobacter calcoaceticus ATCC 15473; test: Antibacterial activity, MIC; format: cell-based; conditions: ATCC15473, ATCC 15473, agar two-fold dilution, 37° C., 20 hours, read-out: MIC
Method in brief: as §1

[16] = system: Bacillus cereus ATCC 11778; test: Antibacterial activity, MIC; format: cell-based; conditions: ATCC11778, ATCC 11778, agar two-fold dilution, 37° C., 20 hours, read-out: MIC
Method in brief: as §1

[17] = system: Pseudomonas aeruginosa ATCC 25619; test: Antibacterial activity, MIC; format: cell-based; conditions: ATCC25619, ATCC 25619, agar two-fold dilution, 37° C., 20 hours, read-out: MIC
Method in brief: as §1

[18] = system: Enterobacter aerogenes ATCC 29751; test: Antibacterial activity, MIC; format: cell-based; conditions: Klebsiella aerogenes, ATCC29751; ATCC 29751; agar two-fold dilution, 37° C., 20 hours; read-out: MIC
Method in brief: as §1

[19] = system: Salmonella typhimurium ATCC 14028; test: Antibacterial activity, MIC; format: cell-based; conditions: Salmonella enterica; ATCC 14028; agar two-fold dilution, 37° C., 20 hours; read-out: MIC
Method in brief: as §1

[20] = system: Enterobacter cloacae ATCC 27508; test: Antibacterial activity, MIC; format: cell-based; conditions: ATCC27508, ATCC 27508, agar two-fold dilution, 37° C., 20 hours, read-out: MIC
Method in brief: as §1

[21] = system: Micrococcus luteus ATCC 9341; test: Antibacterial activity, MIC; format: cell-based; conditions: ATCC9341, ATCC 9341, agar two-fold dilution, 37° C., 20 hours, read-out: MIC
Method in brief: as §1

[22] = system: Shigella sonnei ATCC 11060; test: Antibacterial activity, MIC; format: cell-based; conditions: ATCC11060, ATCC 11060, agar two-fold dilution, 37° C., 20 hours, read-out: MIC
Method in brief: as §1

[23] = system: Bacillus megaterium ATCC 9885; test: Antibacterial activity, MIC; format: cell-based; conditions: Priestia megaterium, ATCC9885; ATCC 9885; agar two-fold dilution, 37° C., 20 hours; read-out: MIC
Method in brief: as §1

[24] = system: Pseudomonas aeruginosa ATCC 27853; test: Antibacterial activity, MIC; format: cell-based; conditions: ATCC27853, ATCC 27853, agar two-fold dilution, 37° C., 20 hours, read-out: MIC
Method in brief: as §1

[25] = system: Staphylococcus epidermidis ATCC 12228; test: Antibacterial activity, MIC; format: cell-based; conditions: ATCC12228, ATCC 12228, agar two-fold dilution, 37° C., 20 hours, read-out: MIC
Method in brief: as §1

[26] = system: Escherichia coli ATCC 25922; test: Antibacterial activity, MIC; format: cell-based; conditions: ATCC25922, agar two-fold dilution, 37° C., 20 hours
Method in brief: as §1

[27] = system: Staphylococcus aureus ATCC 6538p; test: Antibacterial activity, MIC; format: cell-based; conditions: ATCC6538P, ATCC 6538p, agar two-fold dilution, 37° C., 20 hours, read-out: MIC
Method in brief: as §1

Escherichia coli = test: Antibacterial activity against clinically isolated strains, MIC; format: cell-based; conditions: 38 clinical isolates, broth microdilution test
[28] = system: Staphylococcus aureus methicillin susceptible; test: as above; format: cell-based; conditions: methicillin susceptible, 42 clinical isolates, broth microdilution test
Pseudomonas aeruginosa = test: as above; format: cell-based; conditions: 54 clinical isolates, broth microdilution test
Klebsiella pneumoniae = test: as above; format: cell-based; conditions: 10 clinical isolates, broth microdilution test
[29] = system: Staphylococcus aureus methicillin resistant; test: as above; format: cell-based; conditions: methicillin resistant, 7 clinical isolates, broth microdilution test

Structure (SMILES)	MIC [3] [µg/mL]	MIC [4] [µg/mL]	MIC [5] [µg/mL]	MIC [6] [µg/mL]	MIC [7] [µg/mL]	MIC [8] [µg/mL]	MIC [9] [µg/mL]	MIC [10] [µg/mL]	MIC [11] [µg/mL]	MIC [12] [µg/mL]	MIC [13] [µg/mL]	MIC [14] [µg/mL]	MIC [15] [µg/mL]	MIC [16] [µg/mL]	MIC [17] [µg/mL]	MIC [18] [µg/mL]	MIC [19] [µg/mL]	MIC [20] [µg/mL]	MIC [21] [µg/mL]	MIC [22] [µg/mL]	other results
CC[n+]1c(N)cc(N)nc1SCC1=C(C(=O)[O-])N2C(=O)C(NC(=O)/C(=N\OCC(=O)O)c3csc(N)n3)C2SC1 (centres unmarked) [Compound I-8]	0.016 (≈ 0.0262 µM)	≤ 0.008	4 (≈ 6.56 µM)	0.016 (≈ 0.0262 µM)	0.031 (≈ 0.0508 µM)	0.031 (≈ 0.0508 µM)	> 128	0.016 (≈ 0.0262 µM)	0.031 (≈ 0.0508 µM)	0.031 (≈ 0.0508 µM)	0.016 (≈ 0.0262 µM)	2 (≈ 3.28 µM)	8 (≈ 13.1 µM)	64 (≈ 105 µM)	2 (≈ 3.28 µM)	1 (≈ 1.64 µM)	0.063 (≈ 0.103 µM)	≤ 0.008	0.13 (≈ 0.213 µM)	0.031 (≈ 0.0508 µM)	concentration at 1 h ([1]; 60 min, read-out: Plasma Conc.): 8700 ng/mL; concentration at 2 h ([1]; 120 min, read-out: Plasma Conc.): 2700 ng/mL; AUC ([1]; two compartment model): 43400 ng·h/mL; half-life ([1]; two compartment model, read-out: T1/2 (α)): 6 min; half-life ([1]; two compartment model, read-out: T1/2 (β)): 32 min; concentration at 1 min ([2]; 1 min): 121000 ng/mL; concentration at 2.5 min ([2]; 2.5 min): 92000 ng/mL; concentration at 5 min ([2]; 5 min): 64000 ng/mL; concentration at 10 min ([2]; 10 min): 48000 ng/mL; concentration at 20 min ([2]; 20 min): 36000 ng/mL; concentration at 40 min ([2]; 40 min): 15000 ng/mL; MIC [23]: 0.5 µg/mL (≈ 0.82 µM); MIC [24]: 2 µg/mL (≈ 3.28 µM); MIC [25]: 1 µg/mL (≈ 1.64 µM); MIC [26]: 0.031 µg/mL (≈ 0.0508 µM); MIC [27]: 4 µg/mL (≈ 6.56 µM)
CC(O/N=C(\C(=O)NC1C(=O)N2C(C(=O)[O-])=C(CSc3nc(N)cc(N)[n+]3N)CSC12)c1csc(N)n1)C(=O)O (centres unmarked) [Compound I-14]	0.031 (≈ 0.0508 µM)	≤ 0.008	2 (≈ 3.28 µM)	≤ 0.008	0.031 (≈ 0.0508 µM)	0.031 (≈ 0.0508 µM)	> 128	0.031 (≈ 0.0508 µM)	0.031 (≈ 0.0508 µM)	0.031 (≈ 0.0508 µM)	0.031 (≈ 0.0508 µM)	2 (≈ 3.28 µM)	2 (≈ 3.28 µM)	64 (≈ 105 µM)	1 (≈ 1.64 µM)	0.5 (≈ 0.819 µM)	0.13 (≈ 0.213 µM)	≤ 0.008	0.5 (≈ 0.819 µM)	0.016 (≈ 0.0262 µM)	MIC50 (Escherichia coli): 0.031 µg/mL (≈ 0.0508 µM); MIC90 (Escherichia coli): 0.063 µg/mL (≈ 0.103 µM); MIC [23]: 0.5 µg/mL (≈ 0.819 µM); MIC [24]: 1 µg/mL (≈ 1.64 µM); MIC [25]: 1 µg/mL (≈ 1.64 µM); MIC [26]: 0.031 µg/mL (≈ 0.0508 µM); MIC [27]: 4 µg/mL (≈ 6.55 µM); MIC50 [28]: 4 µg/mL (≈ 6.55 µM); MIC90 ([28]; read-out: MIC 90%): 4 µg/mL (≈ 6.55 µM); MIC50 (Pseudomonas aeruginosa): 1 µg/mL (≈ 1.64 µM); MIC90 (Pseudomonas aeruginosa; read-out: MIC 90%): 4 µg/mL (≈ 6.55 µM); MIC50 (Klebsiella pneumoniae): 0.031 µg/mL (≈ 0.0508 µM); MIC90 (Klebsiella pneumoniae; read-out: MIC 90%): 0.063 µg/mL (≈ 0.103 µM); MIC50 [29]: > 128 µg/mL; MIC90 ([29]; read-out: MIC 90%): > 128 µg/mL
